Test [1] concerns 55 M. tuberculosis clinical isolates. The class given is cell-based.
The test system of test [2] is strain 9719. The format is cell-based, M. tuberculosis. As to conditions: for Proportions (%%) of resistant bacteria as determined by agar plates containing the drug (μg/ml) 300 / Proportions (%%) of resistant bacteria as determined by agar plates containing the drug (μg/ml) 900 / Proportions (%%) of resistant bacteria as determined by agar plates containing the drug (μg/ml) 1200: strain 9719.

A further test relates to strain H37Rv. The format is cell-based, M. tuberculosis.
Test [3] has as its system strain 9719. Description: microbe, parasite or virus in culture. The class given is cell-based, M. tuberculosis. As to conditions: read-out: MIC (μg/ml) BACTEC.
Test [4] relates to ten strains previously identified as INH-resistant. Description: microbe, parasite or virus in culture. Conditions: Mycobacterium tuberculosis, HSTB agar; greater than 3.2 eight strains, 1.6 one strain. The class given is cell-based, M. tuberculosis.
Test [5] concerns 13 M. tuberculosis pan-susceptible strains. Put plainly: MIC determination on HSTB agar, susceptible strains. The format is cell-based.
The mark [6] stands for this setting: strains Susceptible by the BACTEC 300 μg/ml.
[7] abbreviates: strains Susceptible by the BACTEC 900 μg/ml.
The mark [8] stands for this setting: 0% of resistant bacteria incorporated.
Setting [9] is: 10% of resistant bacteria incorporated.
[10] abbreviates: 25% of resistant bacteria incorporated.
[11] abbreviates: 50% of resistant bacteria incorporated.
The mark [12] stands for this setting: 100% of resistant bacteria (resistant mutant).

SMILES strings stand for the structures. Values joined by “and” are separate entries in the source; they are usually repeats but may differ in a detail not shown here. Equal values may be shown once. Read-outs that look alike come from different tables or passages of the source. A value given as a limit tells only on which side of the number the result lay.

In the case of `NC(=O)c1cnccn1` [PZA, pyrazinamide], the entries for the “Number of strains by the agar proportion method, 900 μg/ml Resistant” value in test [1], in test [1] (setting [6]) and in test [1] (setting [7]) were 27, 0 and 2, respectively. The “Number of strains by the agar proportion method, 1200 μg/ml Resistant” value in test [1] was 27 and 26; in test [1] (setting [6]), 0; in test [1] (setting [7]) it was 1. The “growth in the agar medium with the drug” value with strain 9719 [2] (pansusceptible strain 9719, all drug-concentrations (300, 900, 1200 μg/ml)) is “completely inhibited”. For the same molecule, the “Proportions (%%) of resistant bacteria as determined by agar plates containing the drug (μg/ml) 300” value stood at 0% with strain 9719 [2] (setting [8]); 13.8% in the test on strain 9719 [2] (setting [9]); 18.1% in the test on strain 9719 [2] (setting [10]); 35.9% in the test with strain 9719 [2] (setting [11]); 97.8% with strain 9719 [2] (setting [12]). Also, the “Proportions (%%) of resistant bacteria as determined by agar plates containing the drug (μg/ml) 900” value with strain 9719 [2] (setting [8]) is reported as 0%; in the test with strain 9719 [2] (setting [9]) it was 8.6%; in the test on strain 9719 [2] (setting [10]) it was 16.2%; in the test with strain 9719 [2] (setting [11]), 36.9%; in the test with strain 9719 [2] (setting [12]), 96.1%. Also, the “Proportions (%%) of resistant bacteria as determined by agar plates containing the drug (μg/ml) 1200” value in the test on strain 9719 [2] (setting [8]) came out at 0%; with strain 9719 [2] (setting [9]) it was 8.6%; in the test on strain 9719 [2] (setting [10]) it was 16.5%; in the test on strain 9719 [2] (setting [11]), 40.0%; in the test with strain 9719 [2] (setting [12]) it was 86.2%. Further, the “MIC (μg/ml) Agar” value in the test with strain H37Rv is 900 µg/mL and >1200 µg/mL. Besides, the MIC with strain 9719 [3] (Mycobacterium tuberculosis, 9719, pH 6, strain 9719, 0% of resistant bacteria incorporated) was at most 100 µg/mL; in the test on strain 9719 [3] (Mycobacterium tuberculosis, 9719, pH 6, strain 9719, 10% of resistant bacteria incorporated) it was over 900 µg/mL; in the test with strain 9719 [3] (Mycobacterium tuberculosis, 9719, pH 6, strain 9719, 25% of resistant bacteria incorporated), over 900 µg/mL; with strain 9719 [3] (Mycobacterium tuberculosis, 9719, pH 6, strain 9719, 50% of resistant bacteria incorporated) it was over 900 µg/mL.

With `NNC(=O)c1ccncc1` [INH, isoniazid], the MIC in test [4] is over 3.2 µg/mL. For the same molecule, in test [5], the “critical concentration for detection of the high level of resistance” value amounted to 1.0 µg/mL and the “critical concentration for detection of the low level of resistance” value came to 0.2 µg/mL.

The values above are taken from patent publication US6951733B2, “Method for testing drug susceptibility of Mycobacterium tuberculosis” (priority 2000, dated 2005).
